In ChEMBL document CHEMBL1149136, “Design and syntheses of 1,6-naphthalene derivatives as selective HCMV protease inhibitors” (J Med Chem, 2004):

Experiments:
[1] = biological target: T1, Capsid scaffolding protein (Human cytomegalovirus (strain AD169) (HHV-5) (Human herpesvirus 5), UniProt P16753); experiment: Inhibitory concentration against HCMV protease.; format: functional, Human herpesvirus 5 strain AD169
T1 sequence (P16753 whole entry): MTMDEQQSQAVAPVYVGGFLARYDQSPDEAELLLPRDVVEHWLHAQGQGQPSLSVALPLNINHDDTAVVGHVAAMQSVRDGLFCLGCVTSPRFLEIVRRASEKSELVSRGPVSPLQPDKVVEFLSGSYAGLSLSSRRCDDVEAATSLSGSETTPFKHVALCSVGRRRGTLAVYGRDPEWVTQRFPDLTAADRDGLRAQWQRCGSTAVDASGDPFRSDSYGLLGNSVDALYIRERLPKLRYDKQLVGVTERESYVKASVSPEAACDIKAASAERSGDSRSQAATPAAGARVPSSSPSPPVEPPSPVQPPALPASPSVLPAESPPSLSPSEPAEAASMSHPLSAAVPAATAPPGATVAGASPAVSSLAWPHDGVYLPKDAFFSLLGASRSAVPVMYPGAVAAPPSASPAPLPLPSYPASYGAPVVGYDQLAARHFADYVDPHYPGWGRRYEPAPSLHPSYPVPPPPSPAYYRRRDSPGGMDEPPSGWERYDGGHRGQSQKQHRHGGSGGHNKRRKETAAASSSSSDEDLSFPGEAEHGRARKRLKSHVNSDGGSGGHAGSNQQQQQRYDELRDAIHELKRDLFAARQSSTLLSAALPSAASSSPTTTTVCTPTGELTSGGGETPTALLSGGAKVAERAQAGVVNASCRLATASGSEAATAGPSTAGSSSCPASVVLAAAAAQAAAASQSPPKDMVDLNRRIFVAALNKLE

[2] = Compound was tested for inhibition of chymotrypsinogen
[3] = biological target: Serine protease 1 (Homo sapiens) (UniProt P07477); experiment: Compound was tested for inhibition of trypsin
Sequence of Serine protease 1 (Homo sapiens) (P07477 whole entry): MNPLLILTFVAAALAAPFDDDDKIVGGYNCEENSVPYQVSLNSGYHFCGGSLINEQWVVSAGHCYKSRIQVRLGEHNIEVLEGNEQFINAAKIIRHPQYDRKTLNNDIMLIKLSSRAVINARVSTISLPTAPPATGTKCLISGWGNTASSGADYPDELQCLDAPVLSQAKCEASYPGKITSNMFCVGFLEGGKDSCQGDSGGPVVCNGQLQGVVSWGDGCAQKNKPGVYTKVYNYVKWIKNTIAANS

[4] = Inhibitory concentration against elastase; format: functional

| SMILES | IC50 [1] [µM] | Activity [2] [µM] | Activity [3] [µM] | IC50 [4] [µM] |
| --- | --- | --- | --- | --- |
| Nc1ccc2c(/C=C/c3ccc4ccc(Cl)cc4n3)cccc2c1 | > 50 |  |  |  |
| O=C(O)c1ccc(CNc2ccc3c(/C=C/c4cccc(C(F)(F)F)c4)cccc3c2)cc1 | 6.9 |  |  |  |
| O=C(O)c1ccc(C(=O)Nc2ccc3c(/C=C/c4ccc5ccc(Cl)cc5n4)cccc3c2)cc1 | 17.4 |  |  |  |
| O=C(Nc1ccc2c(/C=C/c3ccc4ccc(Cl)cc4n3)cccc2c1)NS(=O)(=O)c1ccccc1 | 6.7 |  |  |  |
| O=C(O)c1ccc(C(=O)Nc2ccc3c(OCc4cccc(Br)c4)cccc3c2)cc1 | 6.1 | > 50 | > 80 |  |
| O=C(O)c1ccc(CNc2ccc3c(COc4ccccc4)cccc3c2)cc1 | 4.8 | > 50 | > 80 |  |
| O=C(Nc1ccc2c(/C=C/c3ccc4cc(Cl)ccc4n3)cccc2c1)Oc1ccccc1 | > 50 |  |  |  |
| O=C(Nc1ccc2c(/C=C/c3ccc4ccc(Cl)cc4n3)cccc2c1)c1ccccc1 | > 50 |  |  |  |
| CN(C)c1ccc2nc(/C=C/c3cccc4cc(NS(=O)(=O)C(F)(F)F)ccc34)ccc2c1 | 3.7 |  |  | > 50 |
| O=S(=O)(Nc1ccc2c(/C=C/c3ccc4ccc(Cl)cc4n3)cccc2c1)C(F)(F)F | 15.1 |  |  | > 50 |
| O=C(O)c1ccc(C(=O)Nc2ccc3c(OCc4cccc(C(F)(F)F)c4)cccc3c2)cc1 | 7.4 | > 50 | > 80 |  |
| COc1cccc(/C=C/c2cccc3cc(NS(=O)(=O)C(F)(F)F)ccc23)c1 | 6.6 |  |  | > 50 |
| O=C(O)c1ccc(C(=O)Nc2ccc3c(COc4cccc(Cl)c4)cccc3c2)cc1 | 15.3 |  |  |  |
| O=C(O)c1ccc(C(=O)Nc2ccc3c(COc4cccc(C(F)(F)F)c4)cccc3c2)cc1 | 15.2 |  |  |  |
| O=S(=O)(Nc1ccc2c(/C=C/c3ccc(Cl)cc3)cccc2c1)C(F)(F)F | 4.3 |  |  | > 50 |
| O=S(=O)(Nc1ccc2c(/C=C/c3cc(Cl)c4ccccc4n3)cccc2c1)C(F)(F)F | 10.5 |  |  | > 50 |
| O=C(O)c1ccc(CNc2ccc3c(COc4ccc(Br)cc4)cccc3c2)cc1 | 2.8 | > 50 | > 80 |  |
| O=C(Nc1ccc2c(/C=C/c3ccc4ccc(Cl)cc4n3)cccc2c1)NS(=O)(=O)c1ccc(Cl)cc1 | 4.7 |  |  |  |
| O=C(O)c1ccc(C(=O)Nc2ccc3c(COc4ccc(Br)cc4)cccc3c2)cc1 | 21.3 |  |  |  |

| SMILES | IC50 [1] [µM] | Activity [2] [µM] | Activity [3] [µM] | IC50 [4] [µM] |
| --- | --- | --- | --- | --- |
| O=C(O)c1ccc(C(=O)Nc2ccc3c(/C=C/c4cccc(C(F)(F)F)c4)cccc3c2)cc1 | 6.9 |  |  |  |
| O=S(=O)(Nc1ccc2c(/C=C/c3ccc4ccccc4c3)cccc2c1)C(F)(F)F | 15 |  |  | > 50 |
| O=C(O)c1ccc(CNc2ccc3c(/C=C/c4ccc5ccc(Cl)cc5n4)cccc3c2)cc1 | 2.7 |  |  |  |
| CC(=O)Nc1ccc2c(/C=C/c3ccc4cc(Cl)ccc4n3)cccc2c1 | 43 |  |  |  |
| O=S(=O)(Nc1ccc2c(/C=C/c3ccccn3)cccc2c1)C(F)(F)F | 66 | > 160 |  | > 50 |
| O=S(=O)(Nc1ccc2c(/C=C/c3ccccc3)cccc2c1)C(F)(F)F | 7.5 |  |  | > 50 |
| O=S(=O)(Nc1ccc2c(/C=C/c3ccc4ccccc4n3)cccc2c1)C(F)(F)F | 9.5 |  |  | > 50 |
| Cc1ccc2nc(/C=C/c3cccc4cc(NS(=O)(=O)C(F)(F)F)ccc34)ccc2c1 | 6.3 |  |  | > 50 |
| O=C(O)c1ccc(CNc2ccc3c(COc4cccc(Cl)c4)cccc3c2)cc1 | 3.1 | > 50 | > 80 |  |
| CN(c1ccc2c(/C=C/c3ccc4cc(Cl)ccc4n3)cccc2c1)S(=O)(=O)C(F)(F)F | > 50 |  |  |  |
| Cc1ccc(S(=O)(=O)NC(=O)Nc2ccc3c(/C=C/c4ccc5ccc(Cl)cc5n4)cccc3c2)cc1 | 8.3 |  |  |  |
| COc1ccc2nc(/C=C/c3cccc4cc(NS(=O)(=O)C(F)(F)F)ccc34)ccc2c1 | 3.4 |  |  | > 50 |
| O=C(O)c1ccc2c(/C=C/c3ccc4ccccc4n3)cccc2c1 | > 50 |  |  |  |
| CS(=O)(=O)Nc1ccc2c(/C=C/c3ccc4cc(Cl)ccc4n3)cccc2c1 | > 50 |  |  |  |
| O=C(O)c1ccc(C(=O)Nc2ccc3c(OCc4cccc(Cl)c4)cccc3c2)cc1 | 5.1 | > 50 | > 80 |  |
| O=S(=O)(Nc1ccc2c(/C=C/c3cccc(C(F)(F)F)c3)cccc2c1)C(F)(F)F | 6.5 |  |  | > 50 |
| O=S(=O)(Nc1ccc2c(/C=C/c3ccc4cccc(Cl)c4n3)cccc2c1)C(F)(F)F | 3.2 |  |  | > 50 |
| O=S(=O)(Nc1ccc2c(/C=C/c3ccc4cc(Cl)ccc4n3)cccc2c1)C(F)(F)F | 3.2 |  |  | > 50 |
